Data reported in article PMC5733478, “A Non-imaging High Throughput Approach to Chemical Library Screening at the Unmodified Adenosine-A3 Receptor in Living Cells” (Frontiers in Pharmacology, 2017).
Counter-ions that a name gives are not always drawn. Like-named read-outs stand apart in the source and are kept apart here.

Target: T1, human A3AR (Homo sapiens, UniProt P0DMS8)
T1 construct: expressed in transfected cells
T1 sequence (P0DMS8 1-318): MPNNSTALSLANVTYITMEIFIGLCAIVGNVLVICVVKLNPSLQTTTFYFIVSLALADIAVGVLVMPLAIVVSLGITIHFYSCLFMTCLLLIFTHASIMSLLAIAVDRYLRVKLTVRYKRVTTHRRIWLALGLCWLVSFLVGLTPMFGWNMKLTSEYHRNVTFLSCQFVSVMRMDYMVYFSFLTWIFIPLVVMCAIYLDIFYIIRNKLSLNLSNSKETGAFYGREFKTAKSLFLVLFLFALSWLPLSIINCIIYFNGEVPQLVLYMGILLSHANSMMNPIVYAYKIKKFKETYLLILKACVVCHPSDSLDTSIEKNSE
Assay: LOPAC library primary screen: single concentration (10 μM) inhibition of 25 nM CA200645 binding, PHERAstar FS

[1] = compounds tested at 10 µM, % of control wells (1% DMSO and 25 nM CA200645), whole live cells expressing the A3AR, mean ± SD, three experiments in duplicate
[2] = compounds tested at 10 µM, % of control wells (1% DMSO and 25 nM CA200645), […], mean ± SD, three experiments in duplicate

Compound: CNC(=O)[C@H]1O[C@@H](n2cnc3c(NCc4cccc(I)c4)ncnc32)[C@H](O)[C@@H]1O [IB-MECA, reference compound]
- % 25 nM CA200645 binding: 36.3 ± 4.0%
- % Total CA200645 binding: 36.3 ± 4.0%

Compound: COC(=O)[C@H]1[C@H]2C[C@H]3c4[nH]c5ccccc5c4CCN3C[C@H]2CC[C@@H]1O [Rauwolscine hydrochloride]
- % 25 nM CA200645 binding: 96.5 ± 8.7%

Compound: Nc1nc2c(cnn2CCc2ccccc2)c2nc(-c3ccco3)nn12 [SCH 58261, reference compound]
- % 25 nM CA200645 binding: 52.5 ± 9.7%
- % Total CA200645 binding: 52.2 ± 5.4%

Compound: N[C@@H]1CONC1=O (racemic) [DL-Cycloserine]
- % 25 nM CA200645 binding: 97.4 ± 8.2%

Compound: CN(C)c1ccc(/C=C2\C(=O)Nc3ccccc32)cc1 [SU 4312]
- % 25 nM CA200645 binding: 53.2 ± 16.7%

Compound: CNC1(C)C2CCC(C2)C1(C)C (centres unmarked) [Mecamylamine hydrochloride]
- % 25 nM CA200645 binding: 65.4 ± 10.0%

Compound: NC1(C(=O)O)CCc2cc(C(=O)O)ccc21 (centres unmarked) [AIDA]
- % 25 nM CA200645 binding: 99.4 ± 5.4%

Compound: CN(C)CCC=C1c2ccccc2CCc2ccccc21 [Amitriptyline hydrochloride]
- % 25 nM CA200645 binding: 83.6 ± 19.8%

Compound: Br.CCSC(=N)N [S-Ethylisothiourea hydrobromide]
- % 25 nM CA200645 binding: 91.5 ± 10.5%

Compound: CSC(N)=NCCC[C@H](N)C(=O)O [S-Methyl-L-thiocitrulline acetate]
- % 25 nM CA200645 binding [1]: 102.0 ± 13.0%

Compound: COc1cc(C(O)CO)ccc1OS(=O)(=O)[O-].[K+] (centres unmarked) [MHPG sulfate potassium]
- % 25 nM CA200645 binding: 102.8 ± 6.8%

Compound: CC(=O)O[C@H]1C[C@@]2(C)[C@@H](C[C@@H](O)[C@H]3[C@@]4(C)CC[C@@H](O)[C@@H](C)[C@@H]4CC[C@@]32C)/C1=C(\CCC=C(C)C)C(=O)[O-].[Na+] [Fusidic acid sodium]
- % 25 nM CA200645 binding: 93.0 ± 9.1%

Compound: CN(C)CCCC1(c2ccc(F)cc2)OCc2cc(C#N)ccc21 (centres unmarked) [Citalopram hydrobromide]
- % 25 nM CA200645 binding: 97.2 ± 4.4%

Compound: CCCCNC(=O)NS(=O)(=O)c1ccc(C)cc1 [Tolbutamide]
- % 25 nM CA200645 binding: 101.8 ± 7.4%

Compound: COC(=O)[C@H]1[C@H]2C[C@@H]3c4[nH]c5cc(OC)ccc5c4CCN3C[C@H]2C[C@@H](OC(=O)c2cc(OC)c(OC)c(OC)c2)[C@@H]1OC [Reserpine]
- % 25 nM CA200645 binding: 83.8 ± 14.9%

Compound: C[n+]1cc2c3c(ccc2c2ccc4cc5c(cc4c21)OCO5)OCO3 [Sanguinarine chloride]
- % 25 nM CA200645 binding: 38.9 ± 20.6%

Compound: COc1ccccc1CN[C@@H]1CCCN[C@@H]1c1ccccc1.Cl.Cl.O [CP-100263 dihydrochloride hydrate]
- % 25 nM CA200645 binding: 98.5 ± 6.9%

Compound: CSc1nc(N)c2ncn([C@@H]3O[C@H](COP(=O)([O-])OP(=O)([O-])OP(=O)([O-])[O-])[C@@H](O)[C@H]3O)c2n1.[Na+].[Na+].[Na+].[Na+]
- % 25 nM CA200645 binding: 99.0 ± 0.7%

Compound: OC[C@H]1NC[C@H](O)[C@@H](O)[C@@H]1O [1-Deoxynojirimycin hydrochloride]
- % 25 nM CA200645 binding: 98.5 ± 11.6%

Compound: CC(C)C[C@H]1C(=O)N2CCC[C@H]2[C@]2(O)O[C@](NC(=O)[C@@H]3C=C4c5cccc6[nH]c(Br)c(c56)C[C@H]4N(C)C3)(C(C)C)C(=O)N12.CS(=O)(=O)O [(+)-Bromocriptine methanesulfonate]
- % 25 nM CA200645 binding: 60.6 ± 9.2%

Compound: C[C@H](N)CN1CCc2ccc(Br)cc21.C[C@H](N)CN1CCc2ccc(Br)cc21.O=C(O)/C=C/C(=O)O [VER-3323 hemifumarate salt]
- % 25 nM CA200645 binding: 107.7 ± 7.9%

Compound: Cc1ncc(CNC(=O)N(CCCl)N=O)c(N)n1 [Nimustine hydrochloride]
- % 25 nM CA200645 binding: 95.2 ± 13.6%

Compound: C[N+]1(C)CCN(c2ccccc2)CC1.[I-]
- % 25 nM CA200645 binding: 102.6 ± 13.3%

Compound: Cc1cn[nH]c1.Cl [4-Methylpyrazole hydrochloride]
- % 25 nM CA200645 binding: 102.3 ± 3.8%

Compound: CC(=O)NC[C@H]1CN(c2ccc(N3CCOCC3)c(F)c2)C(=O)O1 [Linezolid]
- % 25 nM CA200645 binding: 100.5 ± 2.1%

Compound: CCC(NC(C)C)C(O)c1ccc(O)c(O)c1.CS(=O)(=O)O (centres unmarked) [Isotharine mesylate]
- % 25 nM CA200645 binding: 102.1 ± 6.6%

Compound: CN1CCC(c2c[nH]c3ccc(O)cc23)CC1.O=C(O)/C=C\C(=O)O [BRL 54443 maleate]
- % 25 nM CA200645 binding: 102.8 ± 6.2%

Compound: Cc1cccc(C)c1NC(=O)CN1CCCC1=O [Nefiracetam]
- % 25 nM CA200645 binding: 88.8 ± 23.8%

Compound: L-Methionine sulfoximine
- % 25 nM CA200645 binding: 107.1 ± 5.4%

Compound: CCN(CC)CCCCNc1ncc2cc(-c3c(Cl)cccc3Cl)c(NC(=O)NC(C)(C)C)nc2n1 [PD-161570]
- % 25 nM CA200645 binding: 90.7 ± 9.1%

Compound: Nc1nc(OCC2CCCCC2)c2[nH]cnc2n1 [NU2058]
- % 25 nM CA200645 binding: 53.9 ± 7.1%

Compound: CCCCCCCCCCCCCCCCCCN(CCCCCCCCCCCCCCCCCC)CCCN(CCO)CCO [Avridine]
- % 25 nM CA200645 binding: 100.2 ± 21.9%

Compound: NC(=O)CN1CCCC1=O [Piracetam]
- % 25 nM CA200645 binding: 110.0 ± 4.3%

Compound: NC(=O)c1cccc(N)c1 [3-aminobenzamide]
- % 25 nM CA200645 binding [2]: 91.6 ± 2.5%

Compound: Cl.Cn1c(CCCC(=O)O)nc2cc(N(CCCl)CCCl)ccc21 [Bendamustine hydrochloride]
- % 25 nM CA200645 binding: 97.6 ± 4.1%

Compound: NC(=Nc1ccccc1)NC(=O)c1nc(Cl)c(N)nc1N [Phenamil methanesulfonate]
- % 25 nM CA200645 binding (% of control wells (1% DMSO and 25 nM CA200645), compounds at 10 µM, whole live cells expressing the A3AR, mean ± SD, three experiments in duplicate): 100.4 ± 3.8%

Compound: CCCCCCCCCCCCCCSCC(=O)O [Tetradecylthioacetic acid]
- % 25 nM CA200645 binding [1]: 101.3 ± 12.1%

Compound: Cl.Nc1ccn([C@@H]2O[C@H](CO)[C@@H](O)[C@@H]2O)c(=O)n1
- % 25 nM CA200645 binding: 98.1 ± 3.7%

Compound: Cl.O=C(O)C1CCCN(CCC=C(c2ccccc2)c2ccccc2)C1 (centres unmarked) [SKF 89976A hydrochloride]
- % 25 nM CA200645 binding [2]: 95.9 ± 25.1%

Compound: C[N+](C)(C)CCO.[Br-] [Choline bromide]
- % 25 nM CA200645 binding: 100.0 ± 6.6%

Compound: Nc1nc2[nH]c(=O)cnc2c(=O)[nH]1 [Isoxanthopterin]
- % 25 nM CA200645 binding: 94.7 ± 15.0%

Compound: C1COC(NC(C2CC2)C2CC2)=N1 [Rilmenidine hemifumarate]
- % 25 nM CA200645 binding: 100.9 ± 6.4%

Compound: CC(=O)NCCc1c[nH]c2ccccc12 [N-Acetyltryptamine]
- % 25 nM CA200645 binding: 99.0 ± 14.1%

Compound: O=C(O)COCCN1CCN(C(c2ccccc2)c2ccc(Cl)cc2)CC1 (centres unmarked) [Cetirizine dihydrochloride]
- % 25 nM CA200645 binding: 98.6 ± 19.3%

Compound: Cl.Clc1ccc(Cn2c(CN3CCCC3)nc3ccccc32)cc1 [Clemizole hydrochloride]
- % 25 nM CA200645 binding: 99.7 ± 8.2%

Compound: Cn1cnc([N+](=O)[O-])c1Sc1ncnc2nc[nH]c12 [Azathioprine]
- % 25 nM CA200645 binding: 93.9 ± 5.0%

Compound: CC(=O)c1ccc2c(c1)N(CCCN(C)C)c1ccccc1S2 [Acepromazine maleate]
- % 25 nM CA200645 binding: 90.7 ± 4.5%

Compound: O=C(O)CCC(C(=O)O)N1C(=O)c2ccccc2C1=O [L-Glutamic acid, N-phthaloyl-]
- % 25 nM CA200645 binding: 89.4 ± 32.8%

Compound: c1ccc(C2CC2)c(OCC2=NCCN2)c1 [Cirazoline hydrochloride]
- % 25 nM CA200645 binding [1]: 105.5 ± 7.7%

Compound: COC(=O)c1c(C)[nH]c(C)c1C(=O)c1ccccc1Cc1ccccc1 [FPL 64176]
- % 25 nM CA200645 binding: 74.2 ± 6.7%

Compound: N=C(N)NC(=N)Nc1ccccc1 [1-Phenylbiguanide]
- % 25 nM CA200645 binding: 96.2 ± 2.3%

Compound: CC(C)(CO)Cc1cc(C(C)(C)C)c(O)c(C(C)(C)C)c1 [CGP-7930]
- % 25 nM CA200645 binding: 87.6 ± 4.9%

Compound: COc1ccc(OC)c(C(O)C(C)N)c1 (centres unmarked) [Methoxamine hydrochloride]
- % 25 nM CA200645 binding: 132.3 ± 57.0%

Compound: C#CCN[C@H](C)Cc1ccccc1.Cl [R-(-)-Desmethyldeprenyl hydrochloride]
- % 25 nM CA200645 binding: 101.0 ± 11.7%

Compound: CCN(CC)C(C)CN1c2ccccc2Sc2ccccc21 (centres unmarked) [Ethopropazine hydrochloride]
- % 25 nM CA200645 binding: 108.3 ± 15.2%

Compound: CC(C)N(CCC(=O)c1ccc2ccccc2c1)Cc1ccccc1.Cl [ZM 39923 hydrochloride]
- % 25 nM CA200645 binding: 115.5 ± 23.0%

Compound: O=c1[nH]c(=O)n([C@H]2C[C@H](O)[C@@H](CO)O2)cc1Br [5-Bromo-2'-deoxyuridine]
- % 25 nM CA200645 binding: 101.6 ± 8.3%

Compound: CN1C(C(=O)Nc2ccccn2)=C(O)c2ccccc2S1(=O)=O [Piroxicam]
- % 25 nM CA200645 binding: 101.0 ± 12.2%

Compound: CC[C@@]1(O)C(=O)OCc2c1cc1n(c2=O)Cc2cc3ccccc3nc2-1 [(S)-(+)-Camptothecin]
- % 25 nM CA200645 binding: 99.7 ± 12.1%

Compound: CCCC(CCC)C(=O)O [Valproic acid sodium]
- % 25 nM CA200645 binding: 99.8 ± 9.6%

Compound: CC(Cc1ccc(O)c(O)c1)C(C)Cc1ccc(O)c(O)c1 (centres unmarked)
- % 25 nM CA200645 binding: 79.3 ± 28.3%

Compound: O=[N+]([O-])c1cc2nc(O)c(O)nc2cc1[N+](=O)[O-] [DNQX]
- % 25 nM CA200645 binding: 85.0 ± 6.8%

Compound: O=c1cc(-c2ccc(O)cc2)oc2cc(O)cc(O)c12 [Apigenin]
- % 25 nM CA200645 binding: 41.8 ± 13.4%

Compound: Nc1nc2c(ncn2CCOCP(=O)(O)O)c(=O)[nH]1 [PMEG hydrate]
- % 25 nM CA200645 binding: 97.6 ± 14.8%

Compound: OC[C@H]1OC(n2cnc3ccccc32)[C@H](O)[C@@H]1O (stereo partly drawn) [D-ribofuranosylbenzimidazole]
- % 25 nM CA200645 binding: 98.4 ± 15.0%

Compound: CC[C@@H]1Cc2cc(O)ccc2C2=C1c1ccc(O)cc1C[C@H]2CC
- % 25 nM CA200645 binding: 85.9 ± 6.0%

Compound: N#Cc1cc2nc([O-])c([O-])nc2cc1[N+](=O)[O-].[Na+].[Na+] [CNQX disodium]
- % 25 nM CA200645 binding: 94.7 ± 15.8%

Compound: NC(=O)c1cc(N2CC2)c([N+](=O)[O-])cc1[N+](=O)[O-] [CB 1954]
- % 25 nM CA200645 binding [1]: 93.7 ± 2.8%

Compound: CN(C)C(=O)N=NC(=O)N(C)C [N,N,N',N'-Tetramethylazodicarboxamide]
- % 25 nM CA200645 binding: 95.9 ± 2.2%
